PMC10578352, “Identification of a Protein Arginine Methyltransferase 7 (PRMT7)/Protein Arginine Methyltransferase 9 (PRMT9) Inhibitor” (Journal of Medicinal Chemistry, 2023)

Legend:
[1] = target: T1, GST-HsPRMT7 (Homo sapiens, UniProt Q9NVM4); assay: Radioisotope-based assay (SDS-PAGE, fluorography, densitometry), HsPRMT7; type: biochemical; conditions: substrate HsH2B, 15 °C, read-out: % HsPRMT7 residual activity
T1 construct: made in house; host or cells: E. coli
T1 sequence (Q9NVM4 1-692): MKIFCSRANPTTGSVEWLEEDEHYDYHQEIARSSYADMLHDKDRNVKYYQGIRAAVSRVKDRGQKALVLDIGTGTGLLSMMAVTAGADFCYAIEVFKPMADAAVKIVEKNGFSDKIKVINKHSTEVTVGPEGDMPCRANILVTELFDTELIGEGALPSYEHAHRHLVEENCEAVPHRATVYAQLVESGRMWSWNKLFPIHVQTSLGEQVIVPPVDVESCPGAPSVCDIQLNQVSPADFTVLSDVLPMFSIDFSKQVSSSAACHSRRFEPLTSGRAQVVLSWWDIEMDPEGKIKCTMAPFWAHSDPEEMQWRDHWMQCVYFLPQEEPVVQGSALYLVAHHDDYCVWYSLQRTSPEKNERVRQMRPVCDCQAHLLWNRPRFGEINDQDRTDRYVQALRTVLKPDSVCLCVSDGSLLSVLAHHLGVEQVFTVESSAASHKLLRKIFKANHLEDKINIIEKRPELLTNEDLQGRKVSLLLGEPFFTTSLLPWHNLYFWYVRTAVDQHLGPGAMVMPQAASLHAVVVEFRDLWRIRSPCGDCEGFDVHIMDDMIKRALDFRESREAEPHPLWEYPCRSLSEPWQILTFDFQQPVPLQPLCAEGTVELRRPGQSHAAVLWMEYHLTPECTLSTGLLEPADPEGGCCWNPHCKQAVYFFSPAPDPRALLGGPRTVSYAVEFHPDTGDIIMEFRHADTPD
Experimental: (§1) Based on these outcomes, we resolved to explore the effect on the capability to inhibit PRMT9 enzymatic activity of further reduction of the distance between the pharmacophoric moieties. […] After the experiment was repeated with 100, 250, and 500 μM concentrations of each inhibitor, half inhibition was observed only at a concentration of roughly 250 μM (Figure 4d).
(§2) […]. The experiments were performed as reported in the Experimental procedures section. GST-HsPRMT9 (a) and GST-HsPRMT7 (b) were incubated with human GST-SF3B2 (401–550) peptide or recombinant HsH2B, respectively (1 μg of enzyme, 5 μg of substrate), 0.14 μM [^3H]SAM, and the indicated concentrations of tested compounds at the corresponding optimal reaction temperature (37 °C for HsPRMT9, 15 °C for HsPRMT7). C. elegans GST-tagged enzymes PRMT9 (c) and PRMT7 (d) were incubated with GST-CeSFTB-2 (99–248) fragment or recombinant HsH2B, respectively (1 μg of enzyme, 5 μg of substrate), 0.14 μM [^3H]SAM, and the indicated concentrations of tested compounds at the corresponding optimal reaction temperature (25 °C for CePRMT9, 15 °C for CePRMT7). After SDS-PAGE, the gels were treated as previously described[48] and densitometry analysis was done using ImageJ software, and data was plotted as normalized activity to the no inhibitor controls.
(§3) Human PRMT9, C. elegans PRMT9, human PRMT7, and C. elegans PRMT7 plasmids were sequenced, expressed in E. coli as GST-fusion proteins, and purified as previously described.[48] Substrates were also sequenced and purified as described [human GST-SF3B2 (401–550);[13]C. elegans SFTB-2;[48] human histone H2B (New England Biolabs, M2505S)]. Xenopus laevis histone H2B was expressed in E. coli and purified similarly to what was previously reported by Luger et al.[72]
(§4) Reactions consisting of approximately 1 μg of enzyme (human or C. elegans GST-tagged enzymes PRMT9 and PRMT7), reacted with approximately 5 μg of substrate [for human PRMT9, human GST-SF3B2 401–550 fragment; C. elegans PRMT9 with C. elegans GST-SFTB-2 (99–248) fragment, or recombinant human histone H2B from New England Biolabs (M2505S)], were incubated for the indicated time in reaction buffer {50 mM potassium HEPES buffer, 10 mM NaCl, 1 mM dithiothreitol (DTT), pH 8.0 with 0.7 μM S-adenosyl-L-[methyl-^3H]methionine (^3H-AdoMet, PerkinElmer Life Sciences, 82.7 Ci/mmol, 0.55 mCi/mL in 10 mM H2SO4/EtOH [9:1 (v/v)])} in a final reaction volume of 60 μL. Each reaction was incubated at the corresponding optimal reaction temperature (37 °C for human PRMT9, 25 °C for C. elegans PRMT9, and 15 °C for C. elegans and human PRMT7 enzymes. MTA was dissolved in water, and a wavelength scan was taken to determine the final concentration using the extinction coefficient. The final concentrations used are indicated in the figure legends. […]. EML734, EML736, and EML709 were also dissolved in DMSO, and further dilutions were made in DMSO for the working stocks. For controls, no inhibitor reactions were created by the addition of the respective solvent (water for MTA and DMSO for EPZ015666 and EML inhibitors).
After the reaction incubations with the various concentrations of inhibitors, the reactions were quenched by adding 0.2 volume of 5× SDS sample loading buffer, and subsequently, the reactions were run on a 12.6% polyacrylamide Tris gel. To collect the radioactive signal, the gels were then treated in the same way as previously described.[48] […]

[2] = target: T2, CePRMT7 (Caenorhabditis elegans, UniProt Q9XW42); assay: Radioisotope-based assay (SDS-PAGE, fluorography, densitometry), CePRMT7; type: biochemical; conditions: substrate HsH2B, 15 °C, read-out: % CePRMT7 residual activity
T2 construct: made in house; host or cells: E. coli
Experimental: as §1, §2, §3, §4
After the reaction incubations with the various concentrations of inhibitors, the reactions were quenched by adding 0.2 volume of 5× SDS sample loading buffer, and subsequently, the reactions were run on a 12.6% polyacrylamide Tris gel. To collect the radioactive signal, the gels were then treated in the same way as previously described.[48]
After various exposures were collected to ensure linear detection, densitometry analysis was done using ImageJ software, and data were plotted as normalized activity to the no inhibitor controls.

T2 sequence (Q9XW42 whole entry): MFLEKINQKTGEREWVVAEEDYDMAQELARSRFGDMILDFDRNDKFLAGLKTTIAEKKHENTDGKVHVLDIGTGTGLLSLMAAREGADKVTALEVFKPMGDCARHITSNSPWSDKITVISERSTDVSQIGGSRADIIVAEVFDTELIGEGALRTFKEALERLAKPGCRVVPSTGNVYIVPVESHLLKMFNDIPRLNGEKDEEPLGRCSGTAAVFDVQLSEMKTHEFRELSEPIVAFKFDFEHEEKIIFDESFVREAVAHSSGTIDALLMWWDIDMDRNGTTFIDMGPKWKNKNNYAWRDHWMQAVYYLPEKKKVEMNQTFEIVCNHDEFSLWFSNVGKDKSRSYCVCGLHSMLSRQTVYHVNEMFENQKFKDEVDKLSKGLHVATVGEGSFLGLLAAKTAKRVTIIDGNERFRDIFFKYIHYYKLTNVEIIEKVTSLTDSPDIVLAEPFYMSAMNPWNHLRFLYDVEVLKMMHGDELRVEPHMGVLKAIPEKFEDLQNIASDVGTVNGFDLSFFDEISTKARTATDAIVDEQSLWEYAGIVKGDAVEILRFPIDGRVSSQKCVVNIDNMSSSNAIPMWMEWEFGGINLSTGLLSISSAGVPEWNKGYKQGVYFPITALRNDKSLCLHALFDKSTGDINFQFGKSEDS

Row | SMILES | remaining activity at 100 µM [1] [%] | remaining activity at 100 µM [2] [%] | remaining activity at 250 µM [2] [%] | remaining activity at 500 µM [2] [%]
1 | COC(=O)c1cc(O)c2cc(NC(=O)NCCCNC(=N)NC[C@H]3O[C@@H](n4cnc5c(N)ncnc54)[C@H](O)[C@@H]3O)ccc2c1 [1a] | 0.5 | 19.6 | 12.5 | 0.92
2 | COC(=O)c1cc(O)c2cc(NC(=O)NCCCCNC(=N)NC[C@H]3O[C@@H](n4cnc5c(N)ncnc54)[C@H](O)[C@@H]3O)ccc2c1 [1b] | 8.27 | 34.8 | 8.62 | 5.19
3 | COC(=O)c1cc(O)c2cc(NC(=O)NCCCCCNC(=N)NC[C@H]3O[C@@H](n4cnc5c(N)ncnc54)[C@H](O)[C@@H]3O)ccc2c1 [1c] | 0.03 | 26.1 | 6.92 | 2.32
